From the supplement of paper PMC10307832

How the values were obtained:
Experiment in all cases: relative viability (nuclei count vs DMSO), 5 days (fraction); higher = more cells survive
HCC-366 = system: HCC-366
Procedure, shortened: (§1)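 Lung cancer cell lines in 1536-well plates were dosed by pin tool the day after seeding, either with one drug alone or with a fixed anchor-drug dose plus five library-drug doses (not always all listed) in √10 steps. After 5 days, cells were fixed and their nuclei stained in one step (final 0.05% Triton X-100, 1% formaldehyde, 1 ug/ml Hoechst), then counted on 4× images. Relative viability is the nuclei count in treated wells divided by that in vehicle wells. Values are medians of duplicate plates.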

LK-2 = system: LK-2
Procedure, shortened: as §1

HARA = system: HARA
Procedure, shortened: as §1

NCI-H441 = system: NCI-H441
Procedure, shortened: as §1

CAL-12T = system: CAL-12T
Procedure, shortened: as §1

EMC-BAC-2 = system: EMC-BAC-2
Procedure, shortened: as §1

NCI-H1437 = system: NCI-H1437
Procedure, shortened: as §1

UMC-11 = system: UMC-11
Procedure, shortened: as §1

HOP-62 = system: HOP-62
Procedure, shortened: as §1

NCI-H3122 = system: NCI-H3122
Procedure, shortened: as §1

NCI-H2347 = system: NCI-H2347
Procedure, shortened: as §1

NCI-H596 = system: NCI-H596
Procedure, shortened: as §1

NCI-H1734 = system: NCI-H1734
Procedure, shortened: as §1

NCI-H727 = system: NCI-H727
Procedure, shortened: as §1

COR-L23 = system: COR-L23
Procedure, shortened: as §1

NCI-H1651 = system: NCI-H1651
Procedure, shortened: as §1

RERF-LC-KJ = system: RERF-LC-KJ
Procedure, shortened: as §1

NCI-H1650 = system: NCI-H1650
Procedure, shortened: as §1

PC-3 [JPC-3] = system: PC-3 [JPC-3]
Procedure, shortened: as §1

NCI-H1755 = system: NCI-H1755
Procedure, shortened: as §1

SK-LU-1 = system: SK-LU-1
Procedure, shortened: as §1

Cc1csc(=NC2CCCCC2)n1/N=C/c1ccc(O)c(O)c1O [MIM1] + CC1(C)CCC(c2ccc(Cl)cc2)=C(CN2CCN(c3ccc(C(=O)NS(=O)(=O)c4ccc(N[C@H](CCN5CCOCC5)CSc5ccccc5)c(S(=O)(=O)C(F)(F)F)c4)cc3)CC2)C1 [Navitoclax] (partner 0.5 µM)
relative viability (HCC-366; first compound 0.2 µM): 1.06
relative viability (HCC-366; first compound 0.6325 µM): 0.943
relative viability (HCC-366; first compound 2 µM): 0.809
relative viability (HCC-366; first compound 6.325 µM): 1
relative viability (HCC-366; first compound 20 µM): 0.0645
relative viability (LK-2; first compound 0.2 µM): 0.924
relative viability (LK-2; first compound 0.6325 µM): 0.847
relative viability (LK-2; first compound 2 µM): 0.657
relative viability (LK-2; first compound 6.325 µM): 1.09
relative viability (LK-2; first compound 20 µM): 0.209
relative viability (HARA; first compound 0.2 µM): 1.13
relative viability (HARA; first compound 0.6325 µM): 1.15
relative viability (HARA; first compound 2 µM): 1.19
relative viability (HARA; first compound 6.325 µM): 1.13
relative viability (HARA; first compound 20 µM): 0.23
relative viability (NCI-H441; first compound 0.2 µM): 0.58
relative viability (NCI-H441; first compound 0.6325 µM): 0.912
relative viability (NCI-H441; first compound 2 µM): 0.706
relative viability (NCI-H441; first compound 6.325 µM): 0.577
relative viability (NCI-H441; first compound 20 µM): 0.24
relative viability (CAL-12T; first compound 0.2 µM): 1.13
relative viability (CAL-12T; first compound 0.6325 µM): 1.36
relative viability (CAL-12T; first compound 2 µM): 1.15
relative viability (CAL-12T; first compound 6.325 µM): 0.731
relative viability (CAL-12T; first compound 20 µM): 0.945
relative viability (EMC-BAC-2; first compound 0.2 µM): 1.11
relative viability (EMC-BAC-2; first compound 0.6325 µM): 1.13
relative viability (EMC-BAC-2; first compound 2 µM): 1.27
relative viability (EMC-BAC-2; first compound 6.325 µM): 1.05
relative viability (EMC-BAC-2; first compound 20 µM): 0.274
relative viability (NCI-H1437; first compound 0.2 µM): 0.989
relative viability (NCI-H1437; first compound 0.6325 µM): 1.1
relative viability (NCI-H1437; first compound 2 µM): 0.998
relative viability (NCI-H1437; first compound 6.325 µM): 0.654
relative viability (NCI-H1437; first compound 20 µM): 0.27
relative viability (UMC-11; first compound 0.2 µM): 0.32
relative viability (UMC-11; first compound 0.6325 µM): 0.298
relative viability (UMC-11; first compound 2 µM): 0.36
relative viability (UMC-11; first compound 6.325 µM): 0.208
relative viability (UMC-11; first compound 20 µM): 0.145
relative viability (HOP-62; first compound 0.2 µM): 1.11
relative viability (HOP-62; first compound 0.6325 µM): 1.11
relative viability (HOP-62; first compound 2 µM): 0.525
relative viability (HOP-62; first compound 6.325 µM): 0.86
relative viability (HOP-62; first compound 20 µM): 0.559
relative viability (NCI-H3122; first compound 0.2 µM): 1.06
relative viability (NCI-H3122; first compound 0.6325 µM): 1.09
relative viability (NCI-H3122; first compound 2 µM): 1.1
relative viability (NCI-H3122; first compound 6.325 µM): 0.761
relative viability (NCI-H3122; first compound 20 µM): 0.426
relative viability (NCI-H2347; first compound 0.2 µM): 0.661
relative viability (NCI-H2347; first compound 0.6325 µM): 0.776
relative viability (NCI-H2347; first compound 2 µM): 0.812
relative viability (NCI-H2347; first compound 6.325 µM): 0.544
relative viability (NCI-H2347; first compound 20 µM): 0.408
relative viability (NCI-H596; first compound 0.2 µM): 0.935
relative viability (NCI-H596; first compound 0.6325 µM): 0.921
relative viability (NCI-H596; first compound 2 µM): 0.895
relative viability (NCI-H596; first compound 6.325 µM): 0.806
relative viability (NCI-H596; first compound 20 µM): 0.7
relative viability (NCI-H1734; first compound 0.2 µM): 0.807
relative viability (NCI-H1734; first compound 0.6325 µM): 0.908
relative viability (NCI-H1734; first compound 2 µM): 0.783
relative viability (NCI-H1734; first compound 6.325 µM): 0.467
relative viability (NCI-H1734; first compound 20 µM): 0.202
relative viability (NCI-H727; first compound 0.2 µM): 0.441
relative viability (NCI-H727; first compound 0.6325 µM): 0.493
relative viability (NCI-H727; first compound 2 µM): 0.324
relative viability (NCI-H727; first compound 6.325 µM): 0.346
relative viability (NCI-H727; first compound 20 µM): 0.27
relative viability (COR-L23; first compound 0.2 µM): 0.966
relative viability (COR-L23; first compound 0.6325 µM): 1.08
relative viability (COR-L23; first compound 2 µM): 0.997
relative viability (COR-L23; first compound 6.325 µM): 0.774
relative viability (COR-L23; first compound 20 µM): 0.515
relative viability (NCI-H1651; first compound 0.2 µM): 1.09
relative viability (NCI-H1651; first compound 0.6325 µM): 1.1
relative viability (NCI-H1651; first compound 2 µM): 1.03
relative viability (NCI-H1651; first compound 6.325 µM): 0.875
relative viability (NCI-H1651; first compound 20 µM): 0.869
relative viability (RERF-LC-KJ; first compound 0.2 µM): 0.848
relative viability (RERF-LC-KJ; first compound 0.6325 µM): 0.725
relative viability (RERF-LC-KJ; first compound 2 µM): 0.534
relative viability (RERF-LC-KJ; first compound 6.325 µM): 0.568
relative viability (RERF-LC-KJ; first compound 20 µM): 0.245
relative viability (NCI-H1650; first compound 0.2 µM): 1.13
relative viability (NCI-H1650; first compound 0.6325 µM): 1.18
relative viability (NCI-H1650; first compound 2 µM): 0.693
relative viability (NCI-H1650; first compound 6.325 µM): 0.452
relative viability (NCI-H1650; first compound 20 µM): 0.202
relative viability (PC-3 [JPC-3]; first compound 0.2 µM): 0.821
relative viability (PC-3 [JPC-3]; first compound 0.6325 µM): 0.682
relative viability (PC-3 [JPC-3]; first compound 2 µM): 0.897
relative viability (PC-3 [JPC-3]; first compound 6.325 µM): 0.696
relative viability (PC-3 [JPC-3]; first compound 20 µM): 0.531
relative viability (NCI-H1755; first compound 0.2 µM): 1.01
relative viability (NCI-H1755; first compound 0.6325 µM): 0.995
relative viability (NCI-H1755; first compound 2 µM): 1.03
relative viability (NCI-H1755; first compound 6.325 µM): 0.703
relative viability (NCI-H1755; first compound 20 µM): 0.557
relative viability (SK-LU-1; first compound 0.2 µM): 0.708
relative viability (SK-LU-1; first compound 0.6325 µM): 0.78
relative viability (SK-LU-1; first compound 2 µM): 0.957
relative viability (SK-LU-1; first compound 6.325 µM): 0.824
relative viability (SK-LU-1; first compound 20 µM): 0.841
